Patent US20160355456A1, “PLANT EXTRACTS AND USE THEREOF” (TAKASAGO INTERNATIONAL CORPORATION, priority 2007, published 2016)

Experiments:
Format in all cases: biochemical
[1] = Deodorizing activity test (1) with laccase as polyphenol oxidase; conditions: Laccase 1 mg, sample 2 mg, sodium methyl mercaptan 15% aqueous solution 2 μl, room temperature 10 minutes, head space gas detection tube
Description: (§1) Tyrosinase (mfd. by SIGMA, 1 mg) or laccase (mfd. by Amano Enzyme, 1 mg) was added as a polyphenol oxidase to each (2 mg) of 5-CQA (mfd. by Tokyo Chemical Industry), ferulic acid (mfd. by Tokyo Chemical Industry) and ferulylquinic acid and dissolved therein, and then sodium methyl mercaptan (mfd. by Tokyo Chemical Industry, 15% aqueous solution) (2 μl) was added thereto as a malodor substance and sealed therein, followed by stirring at room temperature for 10 minutes. The amount of methyl mercaptan in the head space part was measured using a gas detection tube (GASTEC Corporation, #71H) and the deodorizing ratio was calculated in accordance with the following mathematical expression.
(§2) In this connection, a system to which each of CQA or FQA (2 mg) and polyphenol oxidase were not added was used as a control plot.
(§3) Deodorizing ratio (%)=100−(methyl mercaptan concentration of sample plot/methyl mercaptan concentration of control plot)×100

[2] = Deodorizing activity test (1) with tyrosinase as polyphenol oxidase; conditions: Tyrosinase 1 mg, sample 2 mg, sodium methyl mercaptan 15% aqueous solution 2 μl, room temperature 10 minutes, head space gas detection tube
Description: as §1, §2, §3

[3] = Anti-oxidation activity test (DPPH radical elimination ability); conditions: Trolox equivalent amount; sample 100 mg/l in 50% v/v ethanol, 1 mM DPPH, 30 minutes, absorbance 520 nm
Description: As the anti-oxidation activity, to what extent it can eliminate DPPH (1,1-diphenyl-2-picrylhydrazyl) (mfd. by Tokyo Chemical Industry) radicals was evaluated by an absorptiometric method (520 nm). Its illustrative method is as the following anti-oxidation activity measuring method.
Used as the standard of radical elimination ability was Trolox (218940050: mfd. by ACROS ORGANICS) prepared from α-tocopherol which is a typical antioxidant substance by releasing its side chain to provide water-soluble nature. By preparing a calibration curve of Trolox concentration and absorbance (y=−0.2099x+0.4179), anti-oxidation activity of each sample was evaluated by converting it into Trolox equivalent amount. Regarding samples in the table, 5-CQA is manufactured by Tokyo Chemical Industry and ferulic acid is manufactured by Tokyo Chemical Industry.
1 mM ethanol solution of DPPH is prepared (39.4 mg/100 ml). After dissolution, DPPH is immediately used in the test (preparation when used).
By dissolving each sample in 50% v/v ethanol, its 100 mg/l solution is prepared.
A 4 ml portion of the above-mentioned sample solution and 1 ml of the DPPH solution are added to a test tube, followed by stirring and allowing to stand still for 30 minutes, and then absorbance at a wavelength of 520 nm is measured.
By applying absorbance of the sample to the calibration curve, Trolox equivalent amount (mol) is calculated.

Deodorizing ratio (%) [1] [%] | Deodorizing ratio (%) [2] [%] | Compound | Anti-oxidation activity (T. μmol/μmol) [3] [T. μmol/μmol]
−18 | −20 | ferulylquinic acid | 0.35
100 | 75 | O=C(/C=C/c1ccc(O)c(O)c1)O[C@@H]1C[C@@](O)(C(=O)O)C[C@@H](O)[C@@H]1O [Example 5-CQA, 5-caffeoylquinic acid] | 1.03
−18 | −10 | COc1cc(/C=C/C(=O)O)ccc1O [Ferulic acid, ferulic acid] | 0.37
